The source of these data is article PMC5522529, “Mechanisms of Paradoxical Activation of AMPK by the Kinase Inhibitors SU6656 and Sorafenib” (Cell Chemical Biology, 2017).

In experiment [1] the target is T1, α1 kinase domain (α1-KD, residues 1–312) (Homo sapiens, UniProt Q13131).
T1 construct: amplifying residues 1-312 with an N-terminal FLAG-tag; expressed in transfected cells; host or cells: HEK293 (transient transfection, pcDNA5 FRT)
The experiment can be described thus: Activity of FLAG-tagged α1 kinase domain expressed in HEK293 cells. The class given is cell-based. The following applies: 1 hr. The text has this: We next expressed an FLAG-tagged α1 kinase domain (α1-KD, residues 1–312) by transient transfection in HEK293 cells, treated the cells with various AMPK activators, and then assayed both the expressed α1-KD (precipitated using anti-FLAG) and endogenous full-length α1 complexes (precipitated using anti-α1 antibodies recognizing an epitope outside the α1-KD). […] This was also observed with A23187, as expected since this ionophore increases intracellular Ca^2+ and activates the alternate upstream kinase CaMKK2.
The α1-KD was precipitated using anti-FLAG and endogenous AMPK complexes using anti-α1 antibody, and activity determined. Results (mean ± SD, n = 2) are expressed relative to activities in DMSO controls. (B) Western blots (n = 2) using the indicated antibodies; samples from experiment in (A). (C) DNAs encoding FLAG-tagged AMPK-α1 (WT or AT mutant) were expressed by transient transfection in HEK293 cells, the cells treated with increasing concentrations of SU6656 for 1 hr, AMPK complexes precipitated with anti-FLAG, and activity measured. Results (mean ± SD, n = 3) are expressed relative to the DMSO control. […] Results (mean ± SD, n = 3) are expressed relative to the DMSO control. **p < 0.01, ***p < 0.001, ****p < 0.0001, ^†††p < 0.001; ns, not significant.
A plasmid encoding the AMPK-α2 kinase domain (α2-KD) was made by amplifying residues 1-310 with 5' BamH1 and 3' Xho1 sites, the resulting PCR product was cloned into pGEX6P2. Point mutations were generated using the Quikchange II site-directed mutagenesis kit (Stratagene) and confirmed by DNA sequencing.

For experiment [2], the target named is T2, AMPK-γ2 (WT) (Homo sapiens, UniProt Q9UGJ0).
T2 construct: expressed in transfected cells; host or cells: Flp-In T-REx 293 (HEK293), tetracycline-inducible
The experiment can be described thus: AMPK activity in HEK293 cells expressing WT AMPK-γ2. The experiment is classed as cell-based. The settings on record: 1 hr. The text has this:
The next possibility was that, like several other AMPK-activating drugs, SU6656 inhibits mitochondrial ATP synthesis, and thus activates AMPK indirectly by increasing cellular AMP/ADP. To test this, we used cell lines inducibly expressing either WT AMPK-γ2 or an AMP/ADP-resistant R531G (RG) mutant ([Hawley et al., 2010]). […] There were no effects of SU6656 on cellular oxygen uptake, unlike berberine. Subsequent addition of the uncoupler 2,4-dinitrophenol (DNP), which prevents the respiratory chain from being limited by ADP supply, increased oxygen uptake identically in control and SU6656-treated cells but had no effect following berberine, as expected for a complex I inhibitor (Figure S2).
(§1) (B) WT or RG cells were treated as in (A) and nucleotides extracted for analysis (mean ± SD, n = 3). […] (E) (See also Figure S2) Time courses of cellular oxygen uptake before and after addition of the indicated concentrations of sorafenib (SO, μM), SU6656 (100 μM) or phenformin (PHEN, 10 mM) (mean ± SEM, n = 4). (F) Effect of various concentrations of sorafenib or phenformin (10 mM) on activation (top, mean ± SEM, n = 3) or phosphorylation (bottom) of AMPK in cells expressing wild-type AMPK-γ2 (WT) or the R531G mutant AMPK-γ2 (RG). In all panels, asterisks show significant differences from DMSO controls (ns, not significant). In (B), daggers (†) show significant differences between results in WT and RG cells. *p < 0.05, **p < 0.01, ***p < 0.001, ****p < 0.0001, ^††††p < 0.0001.
HEK-293 cells stably expressing tetracycline-inducible FLAG-tagged human AMPK-γ2, or an R531G mutant, were generated by introducing the corresponding DNAs into Flp-In™ T-REx™ 293 cells ([Auciello et al., 2014]). Expression of the FLAG-tagged constructs was induced for 48 hr using tetracycline (1 μg.ml^-1) prior to addition of compounds under test. Transient transfections were carried out 36-48 hr prior to experiments, using Fugene 6 according to manufacturers’ instructions.

The subject of experiment [3] is HEK293 cells. Briefly: Cellular oxygen uptake. The experiment is classed as cell-based, human. As to the method:
as §1
Cellular oxygen consumption rate was measured using a Seahorse XF24 Extracellular Flux Analyser according to manufacturers’ instructions, as specified previously ([Hawley et al., 2010]).
Oxygen uptake of HEK-293 cells measured under basal conditions
(open bars), after addition of the indicated concentration of SU6656 or berberine (300 µM) (gray bars), then after subsequent addition of the uncoupler 2,4-dinitrophenol (DNP, hatched bars, 100 µM) […]
different before and after addition of SU6656 or berberine, while […]
subsequent addition of DNP.

In experiment [4] the target is human AMPK-α2 (WT) (Homo sapiens, UniProt P54646). The experiment can be described thus: AMPK activity of FLAG-tagged WT AMPK-α2 expressed in HEK293 cells. The experiment is classed as cell-based. The following applies: SU6656 100 μM, phenformin 10 mM, A23187 10 μM, 1 hr. As to the method: Top: AMPK activity (mean ± SEM, n = 4); bottom: western blots showing phosphorylation of Thr172 on AMPK, and of ERK1/2, in cells treated with DMSO (control), SU6656 (100 μM), or PP2 (100 nM) (n = 2). (B) As (A), but in SYF cells. (C) HeLa cells were transfected with DNAs encoding GFP alone, or GFP fused to WT, Y261F/Y365F (FF), or Y36F/Y261F/Y365F (FFF) mutants of LKB1; cells were treated with increasing concentrations of SU6656 for 1 hr and AMPK activity determined (mean ± SEM, n = 4). See also Figure S1. (D) HEK293 cells were transfected with DNAs encoding FLAG-tagged AMPK-α2 with or without a Y436F mutation. Cells were incubated with DMSO (control), 100 μM SU6656, 10 mM phenformin, or 10 μM A23187 for 1 hr; AMPK complexes were immunoprecipitated using anti-FLAG antibody and assayed. The top panels show kinase activities (mean ± SD, n = 3); the bottom panels show blots from the same experiment (n = 2). In all panels, asterisks indicate significant differences from DMSO controls; in (D), there were no significant differences between the WT and Y463F mutant. **p < 0.01, ****p < 0.0001.
Chain of human AMPK-α2 (WT) (P54646 whole entry, the tested form may be a part): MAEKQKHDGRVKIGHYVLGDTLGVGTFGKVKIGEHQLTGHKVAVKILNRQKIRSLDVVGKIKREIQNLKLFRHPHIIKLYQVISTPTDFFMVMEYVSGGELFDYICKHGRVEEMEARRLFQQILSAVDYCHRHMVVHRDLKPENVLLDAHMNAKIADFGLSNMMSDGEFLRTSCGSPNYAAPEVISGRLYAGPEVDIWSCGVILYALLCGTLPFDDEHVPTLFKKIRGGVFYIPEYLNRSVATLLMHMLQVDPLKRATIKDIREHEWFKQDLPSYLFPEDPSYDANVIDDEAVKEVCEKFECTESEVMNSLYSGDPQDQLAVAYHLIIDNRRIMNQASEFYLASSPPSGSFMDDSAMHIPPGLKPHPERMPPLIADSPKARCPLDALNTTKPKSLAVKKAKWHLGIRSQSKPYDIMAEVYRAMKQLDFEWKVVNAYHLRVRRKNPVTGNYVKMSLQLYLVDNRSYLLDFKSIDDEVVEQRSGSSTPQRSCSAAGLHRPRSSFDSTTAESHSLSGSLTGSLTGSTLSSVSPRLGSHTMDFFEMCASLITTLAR
Chain of human AMPK-α2 (WT) (P54619 whole entry partner, the tested form may be a part): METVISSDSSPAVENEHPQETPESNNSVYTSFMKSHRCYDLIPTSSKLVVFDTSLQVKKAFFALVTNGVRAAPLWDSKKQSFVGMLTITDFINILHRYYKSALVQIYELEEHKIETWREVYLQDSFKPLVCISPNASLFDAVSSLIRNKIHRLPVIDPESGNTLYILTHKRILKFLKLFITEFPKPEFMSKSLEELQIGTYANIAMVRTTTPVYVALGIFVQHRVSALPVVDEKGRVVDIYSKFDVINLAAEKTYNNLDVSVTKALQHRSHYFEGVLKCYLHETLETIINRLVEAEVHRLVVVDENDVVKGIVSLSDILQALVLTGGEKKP

T1 sequence (Q13131 1-312): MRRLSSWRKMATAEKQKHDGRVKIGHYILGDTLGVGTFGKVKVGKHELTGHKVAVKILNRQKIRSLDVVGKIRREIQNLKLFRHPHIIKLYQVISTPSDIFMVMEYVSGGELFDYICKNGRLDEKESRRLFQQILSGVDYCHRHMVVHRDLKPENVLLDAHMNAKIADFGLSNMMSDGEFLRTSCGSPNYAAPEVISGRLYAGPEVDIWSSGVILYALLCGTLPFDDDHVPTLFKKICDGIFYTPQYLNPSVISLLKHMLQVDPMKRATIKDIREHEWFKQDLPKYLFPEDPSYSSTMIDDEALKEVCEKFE
T2 sequence (Q9UGJ0 whole entry): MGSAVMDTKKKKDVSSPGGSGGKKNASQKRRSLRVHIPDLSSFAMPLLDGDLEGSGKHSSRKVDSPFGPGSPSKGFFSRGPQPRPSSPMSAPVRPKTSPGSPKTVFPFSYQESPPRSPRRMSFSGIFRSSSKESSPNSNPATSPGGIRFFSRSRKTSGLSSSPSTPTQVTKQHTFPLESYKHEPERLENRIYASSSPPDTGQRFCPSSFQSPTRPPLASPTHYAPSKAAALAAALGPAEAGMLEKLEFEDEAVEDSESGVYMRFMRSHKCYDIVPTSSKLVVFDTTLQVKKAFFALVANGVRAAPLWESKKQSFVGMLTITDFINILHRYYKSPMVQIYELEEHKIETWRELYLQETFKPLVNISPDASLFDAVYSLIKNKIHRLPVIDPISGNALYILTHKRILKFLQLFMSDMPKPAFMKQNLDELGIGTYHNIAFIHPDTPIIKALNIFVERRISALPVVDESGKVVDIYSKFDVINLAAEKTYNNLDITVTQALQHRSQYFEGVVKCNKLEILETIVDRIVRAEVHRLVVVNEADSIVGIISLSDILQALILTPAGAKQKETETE

`CN(C)S(=O)(=O)c1ccc2c(c1)/C(=C/c1cc3c([nH]1)CCCC3)C(=O)N2` [SU6656]: the “kinase activity / Thr172 phosphorylation” value in experiment [1] is “increased kinase activity”. Besides, in experiment [2], the AMPK activity entry is “activated AMPK and enhanced Thr172 phosphorylation in both WT and RG cells”. Also, the cellular oxygen uptake result in experiment [3] is on record as “no effects”. In addition, in experiment [4], the “AMPK activity in anti-FLAG immunoprecipitates” value was “all activated AMPK”.
As for `CNC(=O)c1cc(Oc2ccc(NC(=O)Nc3ccc(Cl)c(C(F)(F)F)c3)cc2)ccn1` [sorafenib], in experiment [3], the “concentrations that rapidly inhibited cellular oxygen uptake” value is 3 to 30 µM.
For the molecule `COc1ccc2cc3[n+](cc2c1OC)CCc1cc2c(cc1-3)OCO2` [berberine], the “kinase activity / Thr172 phosphorylation” value in experiment [1] is recorded as “failed to activate or cause Thr172 phosphorylation”. The AMPK activity result in experiment [2] was “activated AMPK in the WT”.
